Measured values taken from patent US10828265B2, “Formulations of propranolol and analogs as an amorphous melt or ionic liquid for transdermal drug delivery” (The Regents of the University of California, priority 2016, dated 2020).
Counter-ions that a name gives are not always drawn. Like-named read-outs stand apart in the source and are kept apart here.

Experiments:
[1] = Partition coefficient n-octanol/water (log Po/w); type: physicochemical
Procedure: Lipophilicity of propranolol melts or ionic liquids, measured as partition coefficient n-octanol/water (log Po/w), varied depending on the carbon chain length of the counter species (FIG. 6C). The log Po/w of propranolol melts or ionic liquids ranged from 0.76 to 1.76, and were between −0.41 of PRL:Cl and 3.12 of PFB.
A 250 mL volume of n-octanol was shaken with 25 mL of ddH2O and left overnight to obtain n-octanol saturated with water. A 250 mL volume of ddH2O was shaken with 25 mL of n-octanol and left overnight to obtain water saturated with n-octanol. Ten milliliters of saturated n-octanol was added to each 3H-labeled propranolol melt or ionic liquid (6-10 mg) in a 20-mL scintillation vial followed by stirring until the melt or ionic liquid was dissolved completely. 10 mL saturated water was shaken with 10 mL of the 3H-labeled propranolol melt or ionic liquid solution in octanol for 1 minute, followed by 2 minutes of gentle centrifugation (1000 rpm, 74×g, Allegra X-12R centrifuge, FX6100 rotor, Beckman Coulter, Brea, Calif.) to obtain clean separation of the two layers. […] The partition coefficient n-octanol/water was calculated as the logarithm of the concentration of propranolol in octanol divided by the concentration of propranolol in water.

[2] = system: Mat Tek Epiderm FT human skin equivalent tissues; conditions: for Dose-normalized skin irritation potential, fold lower than 0.1 M PFB EtOH formulation: interleukin-1α release divided by applied dose, neat melt, FIG. 8A; for skin irritation potential normalized to delivered dose in acceptor, fold lower than 0.1 M PFB EtOH formulation: interleukin-1α release divided by delivered dose in acceptor compartment, FIG. 8B
Procedure: Evaluation was conducted using human skin equivalent tissues (Epiderm™) with a human interleukin-1α ELISA kit. Interleukin-1α release has been previously established as an indicator for skin irritation and affords evaluating irritation without requiring removal of the test formulation from skin tissues, a potentially damaging process to the tissues when studying viscous formulations. 0.1 M and 0.2 M PFB EtOH formulations, positive control (5% sodium dodecyl sulfate (SDS) in PBS), negative control (PBS) and EtOH solvent control were also evaluated.
Skin irritation was assessed by measuring interleukin-1α release from Mat Tek Epiderm FT™ human skin equivalent tissues (MatTek Corporation, Ashland, Mass.). Experiments were performed according to the manufacturer's recommended protocol. Briefly, new media was added immediately before application of formulations. Formulations were applied to the surface of the tissues for 4 hours. After 4 hours, 200 μL of media was collected for interleukin-la analysis. Interleukin-la release was quantified using a Human Interleukin-la ELISA Kit (Pierce Biotechnology Inc., Rockford, Ill.) according to the manufacturer's recommended Protocol. ThermoFisher Scientific. Instructions of Human IL-1α ELISA Kit. Retrieved from https://www.thermofisher.com/order/catalog/product/EH2IL1A (2014). Absorbance of blank (0 pg/mL Interleukin-1α) was subtracted from absorbance of each sample.

[3] = neat melt, SD of three measurements in parentheses
Procedure: Standard deviations of three measurements are provided in parentheses.
Viscosity was measured using 1-mL samples with a LC-ARES Test Station (TA Instruments, New Castle, Del.) and a cone (diameter: 25 mm; angle: 0.1 rad). The cone rotation rate was 10 s^−1 and viscosity was measured three times per sample at 25° C. and 37° C. Differential scanning calorimetry (DSC) was performed with a Q2000 DSC with 50 position autosampler (TA Instruments, New Castle, Del.). Sample size was 9-10 mg, and was weighed in an aluminum hermetic pan. Samples were heated from room temperature to 120° C. under N2 atmosphere followed by cooling to […] and subsequent heating back to 120° C. with a ramp rate of 10° C. per minute.

[4] = Molar conductivity (neat, in water, in n-octanol); type: physicochemical; conditions: for molar conductivity in n-octanol: 1.32 mM PRL:C8, 1.24 mM PRL:C5, mean±SD; for molar conductivity in water in comparison to sodium chloride: 25° C. and 37° C., FIGS. 9A and 9B
[5] = porcine skin, 24 hours, 37° C.
Procedure: Franz diffusion cells were used to assess the skin transport of propranolol melts or ionic liquids using a previously established protocol described in Karande, P., et al., Discovery of transdermal penetration enhancers by high-throughput screening. […] Briefly, the acceptor chamber was filled with degas sed PBS or 4% bovine serum albumin in PBS and a small stir bar was added. Thawed porcine skin was clamped in place between the acceptor and donor chambers with the SC facing up. Care was taken to ensure no air bubbles resided in the acceptor chamber, and skin was stretched to minimize the presence of furrows. PFB solution in either IPM or EtOH was spiked with the 3H-labeled propranolol free base solution to a final concentration of 10 μCi/mL. Alternatively, 3H-labeled propranolol melts or ionic liquids were used as donor formulations. […] Samples from each tissue layer and acceptor solution were dissolved in Solvable (Perkin Elmer, Waltham, Mass.) overnight, and the amount of propranolol was measured using a scintillation counter and standard solution of radiolabeled donors. […] Furthermore, permeability (Kp) was calculated using the following equation, where Jss is the steady-state flux calculated as the slope of the linear portion of the plot of the cumulative amount permeated per unit area versus time, and C is propranolol concentration in donor. […]

[6] = Solubility in organic and aqueous solvents; type: physicochemical

Row | SMILES | partition coefficient n-octanol/water (log Po/w) [1] | Dose-normalized skin irritation potential, fold lower than 0.1 M PFB EtOH formulation ([2]; 4 hours) [fold] | skin irritation potential normalized to delivered dose in acceptor, fold lower than 0.1 M PFB EtOH formulation [2] [fold] | Propranolol Melt Viscosity ([3]; 25° C.) | Propranolol Melt Viscosity ([3]; 37° C.) | molar conductivity in n-octanol ([4]; 25° C.) [S cm^2/mol] | molar conductivity in n-octanol ([4]; 37° C.) [S cm^2/mol] | molar conductivity in water in comparison to sodium chloride ([4]; water) | also measured
1 | CC(C)NCC(O)COc1cccc2ccccc12 (stereo not shown) [PFB, propranolol free base] | 3.12 |  |  |  |  |  |  |  | 
2 | CCCCCCCCCCCCOS(=O)(=O)[O-].[Na+] [5% SDS in PBS, Sodium dodecyl sulfate, reference compound] |  |  |  |  |  |  |  |  | Interleukin-1α release (irritation) ([2]; 4 hours, FIG. 14A): highest amount of irritation
3 | CC(C)NCC(O)COc1cccc2ccccc12.CCCCCOC(=O)CC(C(=O)OCCCCC)S(=O)(=O)O (stereo not shown) [PRL:C5, propranolol diamyl sulfosuccinate] |  | 1.7 | 3.7 | 59.5 (1.6) Pa s | 14.7 (0.2) Pa s | 0.35±0.01 | 0.40±0.01 | much lower molar conductivity | 
4 | CC(C)NCC(O)COc1cccc2ccccc12.CCCCC(CC)COC(=O)CC(C(=O)OCC(CC)CCCC)S(=O)(=O)O (stereo not shown) [PRL:C8, propranolol dioctyl sulfosuccinate] |  | 11 | 40 | 70.4 (0.9) Pa s | 16.9 (0.1) Pa s | 0.49±0.01 | 0.51±0.01 | much lower molar conductivity | amount of propranolol delivered into skin layers and acceptor [5]: delivery enhancement into each layer; skin permeability (flux normalized by applied dose) [5]: highest permeability among analog melts or ionic liquids; difference in skin irritation potential between PRL:C8 and PRL:C5 ([2]; dose-normalized, FIGS. 8A and 8B): ~10 fold; molar conductivity in water, fold lower than PRL:C5 ([4]; water, 37° C., concentrations >1 mM): ~10 fold
5 | CC(C)NCC(O)COc1cccc2ccccc12.CCCCCCOC(=O)CC(C(=O)OCCCCCC)S(=O)(=O)O (stereo not shown) [PRL:C6, propranolol dihexyl sulfosuccinate] |  |  |  | 1889.4 (325.2) Pa s | 180.9 (10.8) Pa s |  |  |  | 
6 | CC(C)NCC(O)COc1cccc2ccccc12 (stereo not shown) [PRL:Cl, propranolol hydrochloride] | −0.41 |  |  |  |  |  |  |  | solubility ([6]; methanol, organic solvent or mixture, read-out: solubility in methanol): 510 mM; solubility ([6]; water, read-out: solubility in water): 170 mM
